According to US20050239656A1, “Pyridine compounds or salts thereof and herbicides containing the same” (priority 2002, published 2005):

Experiments:
prickly sida [1] = experiment: Test Example 2: soil surface treatment, upland pot test; format: in vivo, Sida spinosa L.; settings: observed 20th to 28th day
Outline: (§1)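 Herbicidal effect is given as percent growth control, assessed by eye 20 to 28 days post-spray against untreated plants (0) and full kill (100). Treatment: soil-surface application one day after sowing, formulated product diluted in 1,500 L/ha water, upland soil, 1/170,000 ha pots.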

rice (var. Nihonbare) = experiment: Test Example 3: paddy pot test, transplanted rice; format: in vivo, Oryza sativa L.; settings: applied 4th day after transplantation, visually observed 21st day after application, 0 = non-treated, 100 = complete kill
Outline: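 Rice (var. Nihonbare) at 2 leaf stage transplanted 3 cm deep into puddled paddy soil under 3–4 cm flooding; on day 4 after transplanting, diluted wettable powder or emulsifiable concentrate applied by pipette under submerged conditions at a set active-ingredient dose. Growth scored visually 21 days after application, 0 (untreated) to 100 (complete kill) %.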

soybean [2] = experiment: Test Example 1: foliage treatment, upland pot test; format: in vivo, Glycine max Merr.; settings: crop, observed 18th to 23rd day, 0 = non-treated, 100 = complete kill
Excerpt: (§2) Upland field soil was put into a 1/170,000 ha pot, and seed of various plants were sown. Then, when the plants reached predetermined leaf stages ((1) barnyardgrass: 1.3 to 2.8 leaf stages, (2) crabgrass: 1.0 to 2.8 leaf stages, (3) green foxtail: 1.3 to 2.6 leaf stages, (4) redroot pigweed: 0.1 to 1.2 leaf stages, (5) prickly sida: 0.1 to 1.2 leaf stages, (6) velvetleaf: 0.1 to 1.2 leaf stages, (7) tall morningglory: 0.1 to 1.5 leaf stages, (8) rice: 1.2 to 2.6 leaf stages, (9) wheat: 1.3 to 2.4 leaf stages, (10) corn, 2.1 to 3.2 leaf stages, (11) soybean: 0.1 to 0.4 leaf stage), a wettable powder or emulsifiable concentrate having the compound of the present invention formulated in accordance with a usual formulation method, was weighed so that the active ingredient would be a predetermined amount, and diluted with water in an amount of 500 L/ha. To the diluted solution, 0.1% (v/v) of agricultural spreader was added. The herbicide thus adjusted was applied by a small size sprayer for foliage treatment. On the 18th to 23rd days after the application of the herbicide, the growth of the respective plants was visually observed, and the herbicidal effects were evaluated by the growth controlling degrees (%) ranging from 0 (equivalent to the non-treated plot) to 100 (complete kill), whereby the results shown in Table 3, were obtained.

crabgrass [3] = experiment: Test Example 2: soil surface treatment, upland pot test; format: in vivo, Digitaria sanguinalis L.; settings: observed 20th to 28th day
Outline: as §1

redroot pigweed [4] = experiment: as above; format: in vivo, Amaranthus retroflexus L.; settings: observed 20th to 28th day
Outline: as §1

rice [5] = experiment: Test Example 1: foliage treatment, upland pot test; format: in vivo, Oryza sativa L.; settings: crop, observed 18th to 23rd day, 0 = non-treated, 100 = complete kill
Excerpt: as §2

soybean [6] = experiment: Test Example 2: soil surface treatment, upland pot test; format: in vivo, Glycine max Merr.; settings: observed 20th to 28th day
Outline: as §1

barnyardgrass [7] = experiment: Test Example 3: paddy pot test, application under submerged conditions; format: in vivo, Echinochloa crus-galli L.; settings: active ingredient 250 g/ha; submerged application at 0.5 leaf stage; visually observed 14 days after application; 0 = non-treated, 100 = complete kill
Outline: (§3)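 Visual growth-control rating (0 = untreated, 100 = complete kill) 14 days after treatment. The formulated compound, as a diluted wettable powder or emulsifiable concentrate, went into 3–4 cm flood water at a predetermined active-ingredient dose once the weeds reached 0.5 leaf stage (wapato: primary leaf stage).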

rice [8] = experiment: Test Example 2: soil surface treatment, upland pot test; format: in vivo, Oryza sativa L.; settings: observed 20th to 28th day
Outline: as §1

corn [9] = experiment: as above; format: in vivo, Zea mays L.; settings: observed 20th to 28th day
Outline: as §1

corn [10] = experiment: Test Example 1: foliage treatment, upland pot test; format: in vivo, Zea mays L.; settings: crop, observed 18th to 23rd day, 0 = non-treated, 100 = complete kill
Excerpt: as §2

redroot pigweed [11] = experiment: Test Example 1: foliage treatment, upland pot test; format: in vivo, Amaranthus retroflexus L.; settings: observed 18th to 23rd day, 0 = non-treated, 100 = complete kill
Excerpt: as §2

japanese bulrush = experiment: Test Example 3: paddy pot test, application under submerged conditions; format: in vivo, Scirpus juncoides; settings: submerged application at 0.5 leaf stage, visually observed 14 days after application, 0 = non-treated, 100 = complete kill
Outline: as §3

barnyardgrass [12] = experiment: Test Example 1: foliage treatment, upland pot test; format: in vivo, Echinochloa crus-galli L.; settings: observed 18th to 23rd day, 0 = non-treated, 100 = complete kill
Excerpt: as §2

velvetleaf [13] = experiment: Test Example 2: soil surface treatment, upland pot test; format: in vivo, Abutilon theophrasti MEDIC.; settings: observed 20th to 28th day
Outline: as §1

prickly sida [14] = experiment: Test Example 1: foliage treatment, upland pot test; format: in vivo, Sida spinosa L.; settings: observed 18th to 23rd day, 0 = non-treated, 100 = complete kill
Excerpt: as §2

velvetleaf [15] = experiment: Test Example 1: foliage treatment, upland pot test; format: in vivo, Abutilon theophrasti MEDIC.; settings: observed 18th to 23rd day, 0 = non-treated, 100 = complete kill
Excerpt: as §2

japanese ribbon wapato = experiment: Test Example 3: paddy pot test, application under submerged conditions; format: in vivo, Sagittaria pygniaea; settings: submerged application at primary leaf stage, visually observed 14 days after application, 0 = non-treated, 100 = complete kill
Outline: as §3

crabgrass [16] = experiment: Test Example 1: foliage treatment, upland pot test; format: in vivo, Digitaria sanguinalis L.; settings: observed 18th to 23rd day, 0 = non-treated, 100 = complete kill
Excerpt: as §2

green foxtail [17] = experiment: Test Example 1: foliage treatment, upland pot test; format: in vivo, Setaria viridis L.; settings: observed 18th to 23rd day, 0 = non-treated, 100 = complete kill
Excerpt: as §2

barnyardgrass [18] = experiment: Test Example 2: soil surface treatment, upland pot test; format: in vivo, Echinochloa crus-galli L.; settings: observed 20th to 28th day
Outline: as §1

green foxtail [19] = experiment: as above; format: in vivo, Setaria viridis L.; settings: observed 20th to 28th day
Outline: as §1

Row | Compound | Growth controlling degree (%) Prickly sida (prickly sida [1]; active ingredient 500 g/ha) [%] | Growth controlling degree (%) Rice (rice (var. Nihonbare); active ingredient 250 g/ha) [%] | Growth controlling degree (%) Soybean (soybean [2]; active ingredient 500 g/ha) [%] | Growth controlling degree (%) Crabgrass (crabgrass [3]; active ingredient 500 g/ha) [%] | Growth controlling degree (%) Redroot pigweed (redroot pigweed [4]; active ingredient 500 g/ha) [%] | Growth controlling degree (%) Rice (rice [5]; active ingredient 500 g/ha) [%] | Growth controlling degree (%) Soyabean (soybean [6]; active ingredient 500 g/ha) [%] | Growth controlling degree (%) Barnyardgrass (barnyardgrass [7]) [%] | Growth controlling degree (%) Rice (rice [8]; active ingredient 500 g/ha) [%] | Growth controlling degree (%) Corn (corn [9]; active ingredient 500 g/ha) [%] | Growth controlling degree (%) Corn (corn [10]; active ingredient 500 g/ha) [%] | Growth controlling degree (%) Redroot pigweed (redroot pigweed [11]; active ingredient 500 g/ha) [%] | Growth controlling degree (%) Barnyardgrass (barnyardgrass [12]; active ingredient 500 g/ha) [%] | Growth controlling degree (%) Velvetleaf (velvetleaf [13]; active ingredient 500 g/ha) [%] | Growth controlling degree (%) Prickly sida (prickly sida [14]; active ingredient 500 g/ha) [%] | Growth controlling degree (%) Velvetleaf (velvetleaf [15]; active ingredient 500 g/ha) [%] | Growth controlling degree (%) Crabgrass (crabgrass [16]; active ingredient 500 g/ha) [%] | Growth controlling degree (%) Green foxtail (green foxtail [17]; active ingredient 500 g/ha) [%] | Growth controlling degree (%) Barnyardgrass (barnyardgrass [18]; active ingredient 500 g/ha) [%] | Growth controlling degree (%) Green foxtail (green foxtail [19]; active ingredient 500 g/ha) [%] | further results
1 | CC(C)C(c1cnccc1C(F)(F)F)N(C)C(=O)CC1CCCC1 (centres unmarked) [I-165] | 70 | 10 | 80 | 100 | 80 | 10 | 20 | 98 | 10 | 20 | 40 | 70 | 80 | 50 | 80 | 80 | 95 | 70 | 100 | 100 | Growth controlling degree (%) Japanese bulrush (japanese bulrush; active ingredient 250 g/ha): 98%; Growth controlling degree (%) Japanese ribbon wapato (japanese ribbon wapato; active ingredient 250 g/ha): 60%
2 | CC(C)C(c1cnccc1C(F)(F)F)N(C)C(=O)Cc1cccc(C(F)(F)F)c1 (centres unmarked) [I-40] | 100 | 0 | 60 | 100 | 90 | 50 | 30 | 100 | 20 | 50 | 90 | 80 | 40 | 70 | 80 | 90 | 95 | 70 | 95 | 100 | Growth controlling degree (%) Japanese bulrush (japanese bulrush; active ingredient 250 g/ha): 50%; Growth controlling degree (%) Japanese ribbon wapato (japanese ribbon wapato; active ingredient 250 g/ha): 50%
3 | CC(C)C(c1cnccc1C(F)(F)F)N(C)C(=O)Cc1ccc(C(F)(F)F)cc1 (centres unmarked) [I-31] | 100 | 20 | 90 | 90 | 80 | 40 | 50 | 100 | 10 | 30 | 70 | 80 | 95 | 50 | 80 | 95 | 85 | 80 | 100 | 100 | Growth controlling degree (%) Japanese bulrush (japanese bulrush; active ingredient 250 g/ha): 95%
4 | CC(C)C(c1cnccc1C(F)(F)F)N(C)C(=O)Cc1ccc(F)cc1F (centres unmarked) [I-18] | 80 |  |  | 100 | 80 |  | 50 |  | 20 | 50 |  |  |  | 80 |  |  |  |  | 100 | 100 | Growth controlling degree (%) Rice (rice (var. Nihonbare); active ingredient 500 g/ha): 10%; Growth controlling degree (%) Soybean (soybean [2]; active ingredient 1000 g/ha): 70%; Growth controlling degree (%) Rice (rice [5]; active ingredient 1000 g/ha): 50%; Growth controlling degree (%) Corn (corn [10]; active ingredient 1000 g/ha): 80%; Growth controlling degree (%) Redroot pigweed (redroot pigweed [11]; active ingredient 1000 g/ha): 90%; Growth controlling degree (%) Japanese bulrush (japanese bulrush; active ingredient 500 g/ha): 90%; Growth controlling degree (%) Barnyardgrass (barnyardgrass [12]; active ingredient 1000 g/ha): 90%; Growth controlling degree (%) Prickly sida (prickly sida [14]; active ingredient 1000 g/ha): 90%; Growth controlling degree (%) Velvetleaf (velvetleaf [15]; active ingredient 1000 g/ha): 90%; Growth controlling degree (%) Japanese ribbon wapato (japanese ribbon wapato; active ingredient 500 g/ha): 90%; Growth controlling degree (%) Crabgrass (crabgrass [16]; active ingredient 1000 g/ha): 90%; Growth controlling degree (%) Green foxtail (green foxtail [17]; active ingredient 1000 g/ha): 70%
5 | CC(C)C(c1cnccc1C(F)(F)F)N(C)C(=O)Cc1cccc(F)c1F (centres unmarked) [I-19] | 98 |  |  | 100 | 80 |  | 30 |  | 10 | 30 |  |  |  | 80 |  |  |  |  | 95 | 100 | Growth controlling degree (%) Rice (rice (var. Nihonbare); active ingredient 500 g/ha): 35%; Growth controlling degree (%) Soybean (soybean [2]; active ingredient 1000 g/ha): 90%; Growth controlling degree (%) Rice (rice [5]; active ingredient 1000 g/ha): 20%; Growth controlling degree (%) Corn (corn [10]; active ingredient 1000 g/ha): 50%; Growth controlling degree (%) Redroot pigweed (redroot pigweed [11]; active ingredient 1000 g/ha): 80%; Growth controlling degree (%) Japanese bulrush (japanese bulrush; active ingredient 500 g/ha): 95%; Growth controlling degree (%) Barnyardgrass (barnyardgrass [12]; active ingredient 1000 g/ha): 80%; Growth controlling degree (%) Prickly sida (prickly sida [14]; active ingredient 1000 g/ha): 80%; Growth controlling degree (%) Velvetleaf (velvetleaf [15]; active ingredient 1000 g/ha): 80%; Growth controlling degree (%) Japanese ribbon wapato (japanese ribbon wapato; active ingredient 500 g/ha): 95%; Growth controlling degree (%) Crabgrass (crabgrass [16]; active ingredient 1000 g/ha): 90%; Growth controlling degree (%) Green foxtail (green foxtail [17]; active ingredient 1000 g/ha): 70%
6 | CC(C)C(c1cnccc1C(F)(F)F)N(C)C(=O)Cc1ccc(F)cc1 (centres unmarked) [I-21] |  |  | 70 |  |  | 20 |  |  |  |  | 30 | 90 | 80 |  | 90 | 95 | 95 | 70 |  |  | Growth controlling degree (%) Prickly sida (prickly sida [1]; active ingredient 250 g/ha): 80%; Growth controlling degree (%) Rice (rice (var. Nihonbare); active ingredient 500 g/ha): 40%; Growth controlling degree (%) Crabgrass (crabgrass [3]; active ingredient 250 g/ha): 98%; Growth controlling degree (%) Redroot pigweed (redroot pigweed [4]; active ingredient 250 g/ha): 90%; Growth controlling degree (%) Soyabean (soybean [6]; active ingredient 250 g/ha): 20%; Growth controlling degree (%) Rice (rice [8]; active ingredient 250 g/ha): 40%; Growth controlling degree (%) Corn (corn [9]; active ingredient 250 g/ha): 50%; Growth controlling degree (%) Japanese bulrush (japanese bulrush; active ingredient 500 g/ha): 98%; Growth controlling degree (%) Velvetleaf (velvetleaf [13]; active ingredient 250 g/ha): 70%; Growth controlling degree (%) Japanese ribbon wapato (japanese ribbon wapato; active ingredient 500 g/ha): 100%; Growth controlling degree (%) Barnyardgrass (barnyardgrass [18]; active ingredient 250 g/ha): 60%; Growth controlling degree (%) Green foxtail (green foxtail [19]; active ingredient 250 g/ha): 90%
